In ChEMBL document CHEMBL3593223, “Neolignans with a Rare 2-Oxaspiro[4.5]deca-6,9-dien-8-one Motif from the Stem Bark of Cinnamomum subavenium” (J Nat Prod, 2015):

How the values were obtained:
[1] = Cytotoxicity against mouse RAW264.7 cells assessed as survival rate at 200 uM after 48 hrs by MTT assay in presence of LPS relative to control; assay type: cell-based; conditions: read-out: Survival
[2] = Cytotoxicity against mouse RAW264.7 cells assessed as survival rate at 200 uM after 48 hrs by MTT assay in absence of LPS relative to control; assay type: cell-based; conditions: read-out: Survival
RAW264.7 = assay: Antiinflammatory activity in mouse RAW264.7 cells assessed as inhibition of LPS-induced nitric oxide production after 24 hrs by Griess assay; assay type: functional, cell-based; conditions: RAW264.7, 24 h

In the case of COC1=CC2(C=C(OC)C1=O)[C@@H](CO)[C@H](c1cc(OC)c(O)c(OC)c1)O[C@H]2[C@H](O)CO, the viability at 48 h, 200 µM [1] is reported as 111%, the viability at 48 h, 200 µM [2] is reported as 102% and the IC50 (RAW264.7) is reported as 4.3 µM.

Work on COC1=CC2(C=C(OC)C1=O)[C@H](CO)[C@@H](c1ccc(O)c(OC)c1)O[C@@H]2[C@@H](O)CO yielded a viability at 48 h, 200 µM [1] of 104%, a viability at 48 h, 200 µM [2] of 98% and an IC50 (RAW264.7) of 17.9 µM.

With COC1=CC2(C=C(OC)C1=O)[C@@H](CO)[C@H](c1ccc(O)c(OC)c1)O[C@H]2[C@H](O)CO the viability at 48 h, 200 µM [1] was 90%, the viability at 48 h, 200 µM [2] was 99% and the IC50 (RAW264.7) was 5.6 µM.

In the case of COC1=CC2(C=C(OC)C1=O)[C@H](CO)[C@@H](c1cc(OC)c(O)c(OC)c1)O[C@@H]2[C@@H](O)CO, the viability at 48 h, 200 µM [1] is reported as 109%, the viability at 48 h, 200 µM [2] is reported as 101% and the IC50 (RAW264.7) is reported as 15.1 µM.

With C[C@@H]1C[C@H]2[C@@H]3CCC4=CC(=O)C=C[C@]4(C)[C@@]3(F)[C@@H](O)C[C@]2(C)[C@@]1(O)C(=O)CO [DEXAMETHASONE] the viability at 48 h, 200 µM [1] was 100%, the viability at 48 h, 200 µM [2] was 91% and the IC50 (RAW264.7) was 0.63 µM.
